Measured values reported in US20260200928A1, “THERAPEUTIC COMPOUNDS” (Sanofi, priority 2022, published 2026).
Counter-ions that a name gives are not always drawn.

Biological target: T1, human IL-17A (Homo sapiens, UniProt Q16552)
T1 construct: purchased R&D Systems 7955-IL/CF
T1 sequence (Q16552 24-155): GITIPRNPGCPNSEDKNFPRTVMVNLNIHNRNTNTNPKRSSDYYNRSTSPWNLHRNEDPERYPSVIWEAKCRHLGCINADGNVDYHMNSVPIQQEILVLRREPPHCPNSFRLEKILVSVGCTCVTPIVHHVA
Assay: IL-17A AlphaLISA competition assay (block of IL-17A binding to its receptor IL-17RA)
Settings: mean IC50 (n≥2), block of IL-17A binding to IL-17RA
In short: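 Human recombinant IL-17A (7.5 nM stock) pre-incubated 30 min at RT with compound, then IL-17RA/Fc (5 nM stock) added for 90 min; AlphaLISA read with anti-Fc acceptor beads, biotinylated anti-IL-17A antibody (5 nM) and streptavidin donor beads (3 h, dark). IC50 from 4-parameter logistic fit, normalised to DMSO and 4 μM reference inhibitor; n≥2.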

IC50 | SMILES
843 nM | CC(C)(C)OC(=O)NCC1(c2nocc2C(=O)N[C@H](C(=O)Nc2cc(CN3C[C@@H](C(F)(F)F)NC3=O)ccn2)C2CCC(F)(F)CC2)CC1 [Example 19, Tert-butyl ((1-(4-(((S)-1-(4,4-difluorocyclohexyl)-2-oxo-2-((4-(((S)-2-oxo-4-(trifluoromethyl)imidazolidin-1-yl)methyl)pyridin-2-yl)amino)ethyl)-carbamoyl)isoxazol-3-yl)cyclopropyl)methyl)carbamate]
85 nM | COCC(NC(=O)CCC(F)(F)F)c1ccnc(NC(=O)C(NC(=O)c2nonc2C)C2CCC(C)CC2)c1 [Example 242, N-((1S)-2-((4-(2-methoxy-1-(4,4,4-trifluorobutanamido)ethyl)pyridin-2-yl)amino)-1-((1r,4S)-4-methylcyclohexyl)-2-oxoethyl)-4-methyl-1,2,5-oxadiazole-3-carboxamide]
359 nM | CC(C)(C)OC(=O)N1CCn2c(ccc2C(=O)N[C@H](C(=O)Nc2cc(CN3C[C@@H](C(F)(F)F)NC3=O)ccn2)C2CCC(F)(F)CC2)C1 [Example 11, Tert-butyl 6-(((S)-1-(4,4-difluorocyclohexyl)-2-oxo-2-((4-(((S)-2-oxo-4-(trifluoromethyl)imidazolidin-1-yl)methyl)pyridin-2-yl)amino)ethyl)carbamoyl)-3,4-dihydropyrrolo[1,2-a]pyrazine-2(1H)-carboxylate]
1250 nM | COCC(NC(=O)CCC(F)(F)F)c1ccnc(NC(=O)[C@@H](NC(=O)c2nonc2C2CC2)C2CCC(F)(F)CC2)c1 (single isomer, unassigned) [Example 134]
6170 nM | Cn1ccnc1C(=O)N[C@H](C(=O)Nc1cc(C(NC(=O)CCC(F)(F)F)C2CC2)ccn1)C1CCC(F)(F)CC1 (stereo partly drawn) [Example 111, N-((1S)-2-((4-(cyclopropyl(4,4,4-trifluorobutanamido)methyl)pyridin-2-yl)amino)-1-(4,4-difluorocyclohexyl)-2-oxoethyl)-1-methyl-1H-imidazole-2-carboxamide]
121 nM | COC[C@H](c1ccnc(NC(=O)[C@@H](NC(=O)c2ccnn2C(C)C)C2CCC(Cl)CC2)c1)N1C[C@@H](C(F)(F)F)NC1=O (stereo partly drawn) [Example 312, N-((1S)-1-(4-chlorocyclohexyl)-2-((4-((S)-2-methoxy-1-((S)-2-oxo-4-(trifluoromethyl)imidazolidin-1-yl)ethyl)pyridin-2-yl)amino)-2-oxoethyl)-1-isopropyl-1H-pyrazole-5-carboxamide]
938 nM | CC(C)(C)OC(=O)N[C@H](C(=O)Nc1cc(CN2C[C@@H](C(F)(F)F)NC2=O)ccn1)C(C1CC1)C1CC1 [Example 104, Tert-butyl ((S)-1,1-dicyclopropyl-3-oxo-3-((4-(((S)-2-oxo-4-(trifluoro-methyl)imidazolidin-1-yl)methyl)pyridin-2-yl)amino)propan-2-yl)carbamate]
1360 nM | COCC(NC(=O)CCC(F)(F)F)c1ccnc(NC(=O)[C@@H](NC(=O)c2ccnn2C(C)C)C2CCC(F)(F)CC2)c1 (single isomer, unassigned) [Example 145]
19 nM | CCc1nocc1C(=O)N[C@H](C(=O)Nc1cc([C@@H](COC)N2C[C@@H](C(F)(F)F)NC2=O)ccn1)C1CCC(Cl)CC1 (stereo partly drawn) [Example 317, N-((1S)-1-(4-chlorocyclohexyl)-2-((4-((S)-2-methoxy-1-((S)-2-oxo-4-(trifluoromethyl)imidazolidin-1-yl)ethyl)pyridin-2-yl)amino)-2-oxoethyl)-3-ethylisoxazole-4-carboxamide]
92 nM | CC(C)n1nccc1C(=O)N[C@H](C(=O)Nc1cc(CN2C[C@@H](C(F)(F)F)NC2=O)ccn1)C(C1CC1)C1CC1 [Example 17, N-((S)-1,1-dicyclopropyl-3-oxo-3-((4-(((S)-2-oxo-4-(trifluoromethyl)imidazolidin-1-yl)methyl)pyridin-2-yl)amino)propan-2-yl)-1-isopropyl-1H-pyrazole-5-carboxamide]
177 nM | Cn1nccc1C(=O)N[C@H](C(=O)Nc1cc([C@H](NC(=O)CCC(F)(F)F)C2CC2)ccn1)C1CCC(F)(F)CC1 [Example 107, N—((S)-2-((4-((R)-cyclopropyl(4,4,4-trifluorobutanamido)methyl)pyridin-2-yl)amino)-1-(4,4-difluorocyclohexyl)-2-oxoethyl)-1-methyl-1H-pyrazole-5-carboxamide]
13 nM | CCC(c1ccnc(NC(=O)C(NC(=O)c2ccnn2C(C)C)C2CCC(C)CC2)c1)N1CC(C(F)(F)F)NC1=O [Example 260, 1-isopropyl-N-((S)-1-((1r,4S)-4-methylcyclohexyl)-2-oxo-2-((4-((R)-1-((S)-2-oxo-4-(trifluoromethyl)imidazolidin-1-yl)propyl)pyridin-2-yl)amino)ethyl)-1H-pyrazole-5-carboxamide]
84 nM | COC[C@H](c1ccnc(NC(=O)C(NC(=O)c2ccnn2C)C2CCC(F)CC2)c1)N1C[C@@H](C(F)(F)F)NC1=O (single isomer, unassigned) [Example 288]
96 nM | CCn1nccc1C(=O)NC(C(=O)Nc1cc(C[C@H]2C[C@@H](C(F)(F)F)NC2=O)ccn1)C(C1CC1)C1CC1 (stereo in doubt) [Example 230, N—((S)-1,1-dicyclopropyl-3-oxo-3-((4-(((3S,5S)-2-oxo-5-(trifluoromethyl)-pyrrolidin-3-yl)methyl)pyridin-2-yl)amino)propan-2-yl)-1-ethyl-1H-pyrazole-5-carboxamide]
3880 nM | Cc1cnn(C)c1Cc1ccnc(NC(=O)C(NC(=O)c2ccnn2C)C2CCC(F)(F)CC2)c1 (stereo not drawn) [Example 53]
539 nM | COCC(c1ccnc(NC(=O)[C@@H](NC(=O)c2ncsc2C#N)[C@H]2CC[C@H](C)CC2)c1)N1C[C@@H](C(F)(F)F)NC1=O (single isomer, unassigned) [Example 92]
9230 nM | NCC1(c2nocc2C(=O)N[C@H](C(=O)Nc2cc(CN3C[C@@H](C(F)(F)F)NC3=O)ccn2)C2CCC(F)(F)CC2)CC1 [Example 22, 3-(1-(Aminomethyl)cyclopropyl)-N—((S)-1-(4,4-difluorocyclohexyl)-2-oxo-2-((4-(((S)-2-oxo-4-(trifluoromethyl)imidazolidin-1-yl)methyl)pyridin-2-yl)amino)ethyl)isoxazole-4-carboxamide HCl salt]
85 nM | Cn1nccc1C(=O)N[C@H](C(=O)Nc1cc(CN2C[C@@H](C(F)(F)F)NC2=O)ccn1)[C@H]1CC[C@H](C)CC1 [Example 3, 1-Methyl-N—((S)-1-((1r,4S)-4-methylcyclohexyl)-2-oxo-2-((4-(((S)-2-oxo-4-(trifluoromethyl)imidazolidin-1-yl)methyl)pyridin-2-yl)amino)ethyl)-1H-pyrazole-5-carboxamide]
164 nM | CCn1nccc1C(=O)N[C@H](C(=O)Nc1cc(C(COC)NC(=O)CCC(F)(F)F)ccn1)C1CCC(F)(F)CC1 (single isomer, unassigned) [Example 138]
4520 nM | COCC(c1ccnc(NC(=O)[C@@H](NC(=O)c2cnc(C)nc2C(F)(F)F)[C@H]2CC[C@H](C)CC2)c1)N1C[C@@H](C(F)(F)F)NC1=O (mixture of isomers) [Example 90, N-((1S)-2-((4-(2-methoxy-1-((RS)-2-oxo-4-(trifluoromethyl)imidazolidin-1-yl)ethyl)pyridin-2-yl)amino)-1-((1r,4S)-4-methylcyclohexyl)-2-oxoethyl)-2-methyl-4-(trifluoromethyl)pyrimidine-5-carboxamide]
65 nM | CCn1nccc1C(=O)NC(C(=O)Nc1cc([C@@H](COC)N2C[C@@H](C(F)(F)F)NC2=O)ccn1)C1CCC(F)CC1 (single isomer, unassigned) [Example 280]
809 nM | C[C@H]1CC[C@H]([C@H](NC(=O)C2(F)CC2)C(=O)Nc2cc(CN3C[C@@H](C(F)(F)F)NC3=O)ccn2)CC1 [Example 67, 1-fluoro-N-((S)-1-((1r,4S)-4-methylcyclohexyl)-2-oxo-2-((4-(((S)-2-oxo-4-(trifluoromethyl)imidazolidin-1-yl)methyl)pyridin-2-yl)amino)ethyl)cyclopropane-1-carboxamide]
444 nM | O=C(N[C@H](C(=O)Nc1cc(C(C2CC2)N2C[C@@H](C(F)(F)F)NC2=O)ccn1)C1CCC(F)(F)CC1)c1nonc1C1CC1 (single isomer, unassigned) [Example 162, 4-Cyclopropyl-N—((S)-2-((4-((R or S)-cyclopropyl((S)-2-oxo-4-(trifluoromethyl)imidazolidin-1-yl)methyl)pyridin-2-yl)amino)-1-(4,4-difluorocyclohexyl)-2-oxoethyl)-1,2,5-oxadiazole-3-carboxamide]
3750 nM | Cc1cc(COC(=O)N[C@H](C(=O)Nc2cc(CN3C[C@@H](C(F)(F)F)NC3=O)ccn2)C2CCC(F)(F)CC2)nn1C [Example 60, (1,5-Dimethyl-1H-pyrazol-3-yl)methyl ((S)-1-(4,4-difluorocyclohexyl)-2-oxo-2-((4-(((S)-2-oxo-4-(trifluoromethyl)imidazolidin-1-yl)methyl)pyridin-2-yl)amino)ethyl)carbamate]
4450 nM | COCC(NC(=O)CCC(F)(F)F)c1ccnc(NC(=O)[C@@H](NC(=O)c2ccnn2C2CC2)C2CCC(F)(F)CC2)c1 (single isomer, unassigned) [Example 146]
77 nM | COCC(c1ccnc(NC(=O)C(NC(=O)C(F)c2ccccc2)C2CCC(C)CC2)c1)N1CC(C(F)(F)F)NC1=O [Example 254, 2-fluoro-N-((S)-2-((4-((S)-2-methoxy-1-((S)-2-oxo-4-(trifluoromethyl)-imidazolidin-1-yl)ethyl)pyridin-2-yl)amino)-1-((1r,4S)-4-methylcyclohexyl)-2-oxoethyl)-2-phenylacetamide]
12 nM | COCC(c1ccnc(NC(=O)[C@@H](NC(=O)c2ccnn2C)[C@H]2CC[C@H](C)CC2)c1)N1C[C@@H](C(F)(F)F)NC1=O (single isomer, unassigned) [Example 85]
